Patent US7056654B2, “Screening assay for inhibitors of human cytochrome P-450” (SmithKline Beecham Corporation, priority 1999, dated 2006)

Biological target: T1, CYP2C8 (Homo sapiens, UniProt P10632)
T1 sequence (P10632 1-490): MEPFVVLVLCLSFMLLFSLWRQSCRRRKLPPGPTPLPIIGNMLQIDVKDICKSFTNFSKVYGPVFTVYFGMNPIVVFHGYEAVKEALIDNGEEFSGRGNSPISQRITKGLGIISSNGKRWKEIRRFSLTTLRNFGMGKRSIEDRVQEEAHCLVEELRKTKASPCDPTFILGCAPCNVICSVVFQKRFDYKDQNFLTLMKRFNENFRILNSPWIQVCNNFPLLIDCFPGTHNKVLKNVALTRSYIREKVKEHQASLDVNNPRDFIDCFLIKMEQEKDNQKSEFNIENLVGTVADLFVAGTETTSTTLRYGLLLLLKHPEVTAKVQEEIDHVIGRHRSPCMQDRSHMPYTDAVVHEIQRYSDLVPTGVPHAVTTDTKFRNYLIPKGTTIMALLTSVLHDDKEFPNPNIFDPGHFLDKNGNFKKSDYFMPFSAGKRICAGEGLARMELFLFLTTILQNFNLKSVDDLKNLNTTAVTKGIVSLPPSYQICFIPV
Conditions: pH 7.4
Description: Assay Methodology for CYP2C8
• 400 μM diethoxyfluorescein, (i.e. 0.155 mg/mL in acetonitrile)—store at approx. −20° C. in the dark • 2% (w/v) NaHCO3—store at approx. 4° C. • 50 mM potassium phosphate buffer, pH 7.4
Freshly prepared cofactor solution:—approx. the following per mL of 2% (w/v) NaHCO3 • 1.7 mg NADP, monosodium salt • 7.8 mg glucose-6-phosphate, monosodium salt • 6 Units glucose-6-phosphate dehydrogenase, Type VII from Bakers Yeast Method: • 1) Pre-warm the plate reader oven to 37° C. and pre-warm the lamp for at least 10 minutes. • 2) Mix 2.5 μL of 400 µM diethoxyfluorescein, 5 μL (50 μg) CYP2C8 microsomal protein and 212.5 μL buffer per incubate (giving 4 µM diethoxyfluorescein and 200 μg/mL protein final concentration). • 3) To each well of a 96-well plate add 220 µL of incubation mix and 5 μL of test compound solution (or 5 μL of appropriate solvent for control wells—methanol, DMSO or acetonitrile may be used). • 4) Pre-incubate the multi-well plate in the plate reader at 37° C. for 5 minutes. Pre-warm the cofactor solution at 37° C. for 5 minutes. • 5) Add 25 μL cofactor solution to each well and scan with an excitation wavelength of 485 nm and an emission wavelength of 530 nm with a gain of 80. Scan for 10 cycles at 1 minute intervals.

`O=c1c(O)c(-c2ccc(O)c(O)c2)oc2cc(O)cc(O)c12` [quercitin] gave an IC50 of 3000 nM.
